Values after ≈ are worked out from the molar mass of the structure shown. “Also recorded” adds a separate entry of the source. Where two headings read alike, the source gives them in different places.
Columns and labels:
[1] = tested on: Adenovirus5 Adenoid75; test: Adenovirus 5 CPE inhibition, A549 (ADV-0172); type: cell-based; settings: A549
[2] = tested on: A549; test: Toxicity in A549 cells (ADV-0172); type: cell-based
[3] = tested on: mouse norovirus (MNV-1); test: Mouse norovirus CPE inhibition (NR), RAW264.7 (17-09); type: cell-based
[4] = tested on: HG23; test: RNA Hybridization toxicity in HG23 cells (16-21); type: cell-based
Text: (§1) Secondary testing was done with human norovirus.

[5] = tested on: HG23; test: NR toxicity in HG23 cells (17-14); type: cell-based; settings: NR (Tox)
Text: as §1

[6] = tested on: RAW264.7
[7] = tested on: human norovirus (NV, GT1); test: Human norovirus replicon, RNA Hybridization, HG23, primary (16-21); type: cell-based; settings: RNA Hybridization (Replicon), NV GT1, HG23
Text: as §1

[8] = tested on: human norovirus (NV, GT1); test: Human norovirus replicon, qPCR, HG23, secondary (17-14); type: cell-based
Text: as §1

[9] = tested on: Zika Virus; test: Zika virus yield reduction (VYR), Huh7, secondary (Zika-094); type: cell-based; settings: Huh-7, Visual (Virus yield reduction), MR766
[10] = Toxicity in Vero 76 cells, primary screen (Zika-089); settings: monkey, Vero 76 cells
[11] = Neutral Red toxicity in Vero 76 cells, secondary (Zika-094); settings: monkey, Vero 76 cells
[12] = tested on: Zika Virus; test: Zika virus CPE inhibition (Neutral Red), Huh7, secondary (Zika-094); type: cell-based; settings: Huh-7, Neutral Red (Cytopathic effect), MR766, Huh7, secondary, read-out: EC50
[13] = tested on: Zika Virus; test: Zika virus CPE inhibition (Neutral Red), Vero 76, secondary (Zika-094); type: cell-based; settings: Neutral Red (Cytopathic effect), MR766
[14] = tested on: Zika Virus; test: Zika virus yield reduction (VYR), Vero 76, secondary (Zika-094); type: cell-based; settings: Visual (Virus yield reduction), MR766
[15] = Neutral Red toxicity in Huh7 cells, secondary (Zika-094); settings: human
[16] = tested on: Zika Virus; test: Zika virus cytopathic effect (CPE) inhibition, Vero 76, primary screen (Zika-089); type: cell-based; settings: Zika virus, MR766, Vero 76, primary
[17] = Cell Titer-Glo toxicity in C-33A cells (HPV16-15); settings: human, C-33A cells
[18] = tested on: influenza A/California/04/2009 (H1N1pdm); test: Mycophenolate mofetil in influenza-infected mice on standard or low nucleotide diet (Example 19); type: in vivo, C57BL/6 mice; settings: for Mean Day of Death (MDD) vs placebo: standard diet
[19] = tested on: Zika Virus; test: Zika prevention, virus yield reduction (VYR), Huh7, 4 h pre-incubation (Zika-138); type: cell-based; settings: Visual (Virus yield reduction); Huh7; pre-incubated 4 hours prior to infection
Experimental: (§2) An experiment was carried out as specified in Example 8. In a Zika Prevention Trial, MPA was pre-incubated with human cells 4 hours or 24 hours before Zika virus infection.

[20] = tested on: Vero 76
[21] = tested on: Zika Virus; test: Zika prevention, CPE inhibition (Neutral Red), Vero 76, 4 h pre-incubation (Zika-138); type: cell-based; settings: Neutral Red (Cytopathic effect), pre-incubated 4 hours prior to infection
[22] = tested on: Zika Virus; test: Zika prevention, virus yield reduction (VYR), Huh7, 24 h pre-incubation (Zika-138); type: cell-based; settings: Visual (Virus yield reduction); Huh7; pre-incubated 24 hours prior to infection
Experimental: as §2

[23] = tested on: Zika Virus; test: Zika prevention, virus yield reduction (VYR), Vero 76, 4 h pre-incubation (Zika-138); type: cell-based; settings: Visual (Virus yield reduction), pre-incubated 4 hours prior to infection
[24] = tested on: Zika Virus; test: Zika prevention, virus yield reduction (VYR), Vero 76, 24 h pre-incubation (Zika-138); type: cell-based; settings: Visual (Virus yield reduction), pre-incubated 24 hours prior to infection
[25] = tested on: Zika Virus; test: Zika prevention, CPE inhibition (Neutral Red), Huh7, 4 h pre-incubation (Zika-138); type: cell-based; settings: Neutral Red (Cytopathic effect), pre-incubated 4 hours prior to infection
[26] = tested on: Vero 76; remark: listed apart in the source
[27] = tested on: Zika Virus; test: Zika prevention, CPE inhibition (Neutral Red), Vero 76, 24 h pre-incubation (Zika-138); type: cell-based; settings: Neutral Red (Cytopathic effect), pre-incubated 24 hours prior to infection
[28] = tested on: Zika Virus; test: Zika prevention, CPE inhibition (Neutral Red), Huh7, 24 h pre-incubation (Zika-138); type: cell-based; settings: Neutral Red (Cytopathic effect), pre-incubated 24 hours prior to infection
[29] = tested on: influenza A/California/04/2009 (H1N1pdm); test: Oseltamivir with control or low guanosine diet in influenza-infected mice (Example 15); type: in vivo, C57BL/6 mice; settings: oseltamivir IP, BID for five days from four hours pre-infection
[30] = in vitro; settings: African green monkey
[31] = tested on: Rift Valley fever virus MP-12; test: microbe, parasite or virus in culture; type: cell-based
[32] = tested on: Influenza A virus H1N1 California/07/2009; test: microbe, parasite or virus in culture; type: cell-based
[33] = tested on: Lassa fever virus Josiah; test: organism not typed; type: cell-based; settings: Vero
[34] = tested on: Respiratory syncytial virus A2; test: microbe, parasite or virus in culture; type: cell-based
[35] = in vitro; settings: dog
[36] = in vitro; settings: African green monkey; remark: listed apart in the source

Nc1ccn([C@H]2CC[C@@H](CO)O2)c(=O)n1 [2,3-Dideoxycytidine]
EC50 ([1]; Neutral Red (Cytopathic effect)): 3.2 µg/mL (≈ 15.2 µM)
EC50 ([1]; Visual (Cytopathic effect)): 3.2 µg/mL (≈ 15.2 µM)
CC50 ([2]; Neutral Red (Toxicity)): >100 µg/mL
CC50 ([2]; Visual (Toxicity)): >100 µg/mL

C[C@@]1(O)[C@H](O)[C@@H](CO)O[C@H]1n1ccc(N)nc1=O [2′C-methyl cytidine]
EC50 [3]: 1000 nM
EC90 [3]: 3.2 µM
CC50 [4]: > 300 µM
CC50 [5]: > 300 µM
CC50 [6]: 51 µM
EC50 ([7]; read-out: EC50): 6.6 µM
EC90 ([7]; read-out: EC90): 17 µM
EC50 [8]: 6 µM
EC90 [8]: 18 µM

O=c1cnn([C@@H]2O[C@H](CO)[C@@H](O)[C@H]2O)c(=O)[nH]1 [6-Azauridine]
EC90 [9]: 27.4 µg/mL (≈ 112 µM)
CC50 ([10]; CC50, Neutral Red (Toxicity)): 83.3 µg/mL (≈ 340 µM)
CC50 ([10]; CC50, Visual (Toxicity)): > 100 µg/mL
CC50 [11]: 9.9 µg/mL (≈ 40.4 µM)
EC50 [12]: 1.2 µg/mL (≈ 4.89 µM)
EC50 [13]: 0.37 µg/mL (≈ 1.51 µM)
EC90 [14]: 1.3 µg/mL (≈ 5.3 µM)
CC50 [15]: > 100 µg/mL
EC50 ([16]; Vero 76, Neutral Red (Cytopathic effect)): 0.35 µg/mL (≈ 1.43 µM)
EC50 ([16]; Vero 76, Visual (Cytopathic effect)): 0.32 µg/mL (≈ 1.31 µM)

Nc1nc2c(ncn2CCOCP(=O)(O)O)c(=O)[nH]1 [9-[2-(phosphonomethoxy)ethyl]guanine]
CC50 [17]: 141 µM

COc1c(C)c2c(c(O)c1C/C=C(\C)CCC(=O)OCCN1CCOCC1)C(=O)OC2 [MMF, 2-morpholinoethyl ester of mycophenolic acid]
protection (survival) vs placebo ([18]; low nucleotide diet, MMF 4 mg/kg/day bid for 6 days beginning 4 h pre-infection): significant (P<0.05) protection; also recorded: improved survival outcome
Mean Day of Death (MDD) vs placebo ([18]; MMF 4 mg/kg/day PO bid for 6 days): significantly (P<0.05) increased
Mean Day of Death (MDD) vs placebo ([18]; MMF 40 mg/kg/day PO bid for 6 days): significantly (P<0.05) increased

C#C[C@@]1(O)[C@H](O)[C@@H](CO)O[C@H]1n1ccc2c(N)ncnc21 [NITD008]
EC90 [19]: 0.61 µg/mL (≈ 2.1 µM)
CC50 [20]: >100 µg/mL
EC50 [21]: 8.3 µg/mL (≈ 28.6 µM)
EC90 [22]: 1.0 µg/mL (≈ 3.44 µM)
EC90 [23]: 7.81 µg/mL (≈ 26.9 µM)
EC90 [24]: 31.62 µg/mL (≈ 109 µM)
EC50 [25]: 1.1 µg/mL (≈ 3.79 µM)
CC50 [26]: >100 µg/mL
EC50 [27]: 5.1 µg/mL (≈ 17.6 µM)
EC50 [28]: 0.77 µg/mL (≈ 2.65 µM)

CCOC(=O)C1=C[C@@H](OC(CC)CC)[C@H](NC(C)=O)[C@@H](N)C1 [Oseltamivir, oseltamivir]
survival at 21 days post-infection ([29]; Group A, control diet (Harlan mouse lab diet)): 40%
survival at 21 days post-infection ([29]; Group B, low guanosine diet (Purina Mills #5755)): 100%

NC(=O)c1ncn([C@@H]2O[C@H](CO)[C@@H](O)[C@H]2O)n1 [Ribavirin]
CC50 [30]: > 1000 µg/mL
EC50 [31]: 12 µg/mL (≈ 49.1 µM)
EC50 ([31]; Rift Valley fever virus, Vero 76): 11 µg/mL (≈ 45 µM)
EC50 [32]: 4.1 µM
EC50 ([32]; Influenza A virus, H1N1, MDCK): 3.7 µM
EC50 [33]: 32 µM
EC50 [34]: 12 µg/mL (≈ 49.1 µM)
EC50 ([34]; human respiratory syncytial virus, MA104): 7.6 µg/mL (≈ 31.1 µM)
CC50 [35]: > 320 µM
CC50 [36]: > 100 µM
